Reference: BigSolDB 2.1

## O=C(O)c1ccco1
In acetone, 280.15 K
  solubility (mole fraction): 0.153
In acetone, 283.25 K
  solubility (mole fraction): 0.159
In acetone, 288.55 K
  solubility (mole fraction): 0.172
In acetone, 293.25 K
  solubility (mole fraction): 0.189
In acetone, 299.15 K
  solubility (mole fraction): 0.206
In acetone, 302.95 K
  solubility (mole fraction): 0.218
In acetone, 308.45 K
  solubility (mole fraction): 0.237
In acetone, 315.75 K
  solubility (mole fraction): 0.265
In ethanol, 279.35 K
  solubility (mole fraction): 0.152
In ethanol, 282.75 K
  solubility (mole fraction): 0.162
In ethanol, 287.35 K
  solubility (mole fraction): 0.176
In ethanol, 294.55 K
  solubility (mole fraction): 0.198
In ethanol, 297.65 K
  solubility (mole fraction): 0.208
In ethanol, 303.05 K
  solubility (mole fraction): 0.225
In ethanol, 310.15 K
  solubility (mole fraction): 0.25
In ethanol, 313.75 K
  solubility (mole fraction): 0.268
In ethanol, 320.75 K
  solubility (mole fraction): 0.29
In ethanol, 325.75 K
  solubility (mole fraction): 0.311
In ethyl acetate, 281.35 K
  solubility (mole fraction): 0.0858
In ethyl acetate, 287.05 K
  solubility (mole fraction): 0.0983
In ethyl acetate, 291.95 K
  solubility (mole fraction): 0.11
In ethyl acetate, 296.55 K
  solubility (mole fraction): 0.124
In ethyl acetate, 301.25 K
  solubility (mole fraction): 0.137
In ethyl acetate, 305.15 K
  solubility (mole fraction): 0.147
In ethyl acetate, 307.45 K
  solubility (mole fraction): 0.157
In ethyl acetate, 312.15 K
  solubility (mole fraction): 0.171
In ethyl acetate, 316.35 K
  solubility (mole fraction): 0.191
In ethyl acetate, 322.35 K
  solubility (mole fraction): 0.216
In methyl acetate, 280.85 K
  solubility (mole fraction): 0.106
In methyl acetate, 284.15 K
  solubility (mole fraction): 0.117
In methyl acetate, 287.75 K
  solubility (mole fraction): 0.127
In methyl acetate, 291.65 K
  solubility (mole fraction): 0.137
In methyl acetate, 295.05 K
  solubility (mole fraction): 0.146
In methyl acetate, 298.75 K
  solubility (mole fraction): 0.156
In methyl acetate, 302.35 K
  solubility (mole fraction): 0.166
In methyl acetate, 308.25 K
  solubility (mole fraction): 0.184
In methyl acetate, 316.35 K
  solubility (mole fraction): 0.216
In methyl acetate, 319.35 K
  solubility (mole fraction): 0.232
In n-propanol, 282.95 K
  solubility (mole fraction): 0.138
In n-propanol, 288.35 K
  solubility (mole fraction): 0.158
In n-propanol, 293.75 K
  solubility (mole fraction): 0.176
In n-propanol, 297.55 K
  solubility (mole fraction): 0.195
In n-propanol, 303.15 K
  solubility (mole fraction): 0.208
In n-propanol, 307.65 K
  solubility (mole fraction): 0.226
In n-propanol, 312.55 K
  solubility (mole fraction): 0.244
In n-propanol, 315.45 K
  solubility (mole fraction): 0.258
In n-propanol, 319.75 K
  solubility (mole fraction): 0.273
In n-propanol, 326.15 K
  solubility (mole fraction): 0.3
In water, 284.85 K
  solubility (mole fraction): 0.0032
In water, 295.25 K
  solubility (mole fraction): 0.0064
In water, 299.45 K
  solubility (mole fraction): 0.0079
In water, 304.65 K
  solubility (mole fraction): 0.0095
In water, 310.65 K
  solubility (mole fraction): 0.0127
In water, 313.25 K
  solubility (mole fraction): 0.0156
In water, 316.85 K
  solubility (mole fraction): 0.0184
In water, 319.45 K
  solubility (mole fraction): 0.022
In water, 321.95 K
  solubility (mole fraction): 0.0282
In water, 324.75 K
  solubility (mole fraction): 0.0342
